Assay [1] has as its system A431 cells (human epidermoid carcinoma). As to the kind of experiment: In vitro tumor cell proliferation assay (Cell Titer-Glo luminescent cell viability), A431. The conditions noted are these: A-431, 72 h, 72 hours of drug exposure, ATP luminescence readout, read-out: IC50, anti-proliferative activity (inhibition of cell proliferation). In kind it is cell-based. The procedure, abridged:
(§1)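 Proliferation inhibition was measured as ATP-dependent luciferase signal after cells in RPMI with 10% FBS received test compound for 72 h at 37° C. Final concentrations spanned […] to 64 pM in 0.1% DMSO; IC50 values were derived.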
For orientation: Cellular ATP, detected with luciferase, serves as a proxy for viable cell number.

For assay [2], the system named is BT474 (human breast carcinoma). As to the kind of experiment: In vitro tumor cell proliferation assay (Cell Titer-Glo luminescent cell viability), BT474. In kind it is cell-based. The note with it: BT-474, 72 h, BT474 cells, 72 hours of drug exposure, ATP luminescence readout, read-out: IC50, anti-proliferative activity (inhibition of cell proliferation). The procedure, abridged: as §1

Results on 24 compounds are retold here after patent US8207172B2 (Bayer Intellectual Property GmbH, priority 2004, dated 2012).

Molecules are shown by their SMILES. Where a name gives a salt, the structure may show the parent alone.

In the case of `CCN(CC)CC(=O)N1CCC(n2cc3c(n2)CCc2c-3sc3ncnc(Nc4ccc(OCc5cccc(F)c5)c(Cl)c4)c23)CC1` [Example 220, N-{3-chloro-4-[(3-fluorobenzyl)oxy]phenyl}-2-{1-[(diethylamino)acetyl]piperidin-4-yl}-4,5-dihydro-2H-pyrimido[5′,4′:4,5]thieno[2,3-e]indazol-6-amine], the figures for the IC50 in assay [1] and in assay [2] were no more than 5 µM and no more than 1 µM, respectively.

Regarding `Fc1cccc(Cn2ncc3cc(Nc4ncnc5sc6c(c45)CCc4c-6cnn4CCn4ccnc4)ccc32)c1` [Example 291, N-[1-(3-fluorobenzyl)-1H-indazol-5-yl]-3-[2-(1H-imidazol-1-yl)ethyl]-4,5-dihydro-3H-pyrimido[5′,4′:4,5]thieno[2,3-e]indazol-6-amine], the IC50 in assay [1] is no more than 5 µM; in assay [2], no more than 1 µM.

As to `CN1CCN(CCn2ncc3c2CCc2c-3sc3ncnc(Nc4ccc(OCc5ccccn5)c(Cl)c4)c23)CC1` [Example 112, N-[3-chloro-4-(pyridin-2-ylmethoxy)phenyl]-3-[2-(4-methylpiperazin-1-yl)ethyl]-4,5-dihydro-3H-pyrimido[5′,4′:4,5]thieno[2,3-e]indazol-6-amine], the IC50 was no more than 5 µM in assay [1] and no more than 1 µM in assay [2].

Turning to `COCCNC(=O)Cn1ncc2c1CCc1c-2sc2ncnc(Nc3ccc(OCc4cccc(F)c4)c(Cl)c3)c12` [Example 207, 2-[6-({3-chloro-4-[(3-fluorobenzyl)oxy]phenyl}amino)-4,5-dihydro-3H-pyrimido[5′,4′:4,5]thieno[2,3-e]indazol-3-yl]-N-(2-methoxyethyl)acetamide], the IC50 was no more than 50 µM in assay [1] and no more than 1 µM in assay [2].

For `O[C@H](CN1CCSCC1)Cn1cc2c(n1)CCc1c-2sc2ncnc(Nc3ccc(OCc4cccc(F)c4)c(Cl)c3)c12` [Example 139, (2R)-1-[6-({3-chloro-4-[(3-fluorobenzyl)oxy]phenyl}amino)-4,5-dihydro-2H-pyrimido[5′,4′:4,5]thieno[2,3-e]indazol-2-yl]-3-thiomorpholin-4-ylpropan-2-ol], the IC50 in assay [1] was no more than 50 µM; in assay [2], no more than 1 µM.

`CCN(CCOC)CCn1cc2c(n1)CCc1c-2sc2ncnc(Nc3ccc(F)c(Cl)c3)c12` [Example 24, N-(3-chloro-4-fluorophenyl)-2-{2-[ethyl(2-methoxyethyl)amino]ethyl}-4,5-dihydro-2H-pyrimido[5′,4′:4,5]thieno[2,3-e]indazol-6-amine]: the IC50 in assay [1] and in assay [2] was no more than 5 µM throughout.

With `CN1CCN(CCn2ncc3c2CCc2c-3sc3ncnc(Nc4ccc5c(cnn5Cc5cccc(F)c5)c4)c23)CC1` [Example 295, 3-[2-(4-methylpiperazin-1-yl)ethyl]-N-[1-(3-fluorobenzyl)-1H-indazol-5-yl]-4,5-dihydro-3H-pyrimido[5′,4′:4,5]thieno[2,3-e]indazol-6-amine], the IC50 is no more than 5 µM in assay [1] and no more than 1 µM in assay [2].

On to `COCCN1CCN(CCn2cc3c(n2)CCc2c-3sc3ncnc(Nc4ccc(F)c(Cl)c4)c23)CC1` [Example 25, N-(3-chloro-4-fluorophenyl)-2-{2-[4-(2-methoxyethyl)piperazin-1-yl]ethyl}-4,5-dihydro-2H-pyrimido[5′,4′:4,5]thieno[2,3-e]indazol-6-amine], for which the IC50 in assay [1] and in assay [2] was no more than 5 µM each time.

As to `CS(=O)(=O)CCNCCn1cc2c(n1)CCc1c-2sc2ncnc(Nc3ccc(OCc4ccccn4)c(Cl)c3)c12` [Example 105, N-[3-chloro-4-(pyridin-2-ylmethoxy)phenyl]-2-(2-{[2-(methylsulfonyl)ethyl]amino}ethyl)-4,5-dihydro-2H-pyrimido[5′,4′:4,5]thieno[2,3-e]indazol-6-amine], the IC50 is no more than 5 µM in assay [1] and no more than 1 µM in assay [2].

For the compound `CN(C)C1CCN(C(=O)Cn2ncc3c2CCc2c-3sc3ncnc(Nc4ccc(OCc5cccc(F)c5)c(Cl)c4)c23)C1` (stereo in doubt) [Example 211, N-{3-chloro-4-[(3-fluorobenzyl)oxy]phenyl}-3-{2-[(3R)-3-(dimethylamino)pyrrolidin-1-yl]-2-oxoethyl}-4,5-dihydro-3H-pyrimido[5′,4′:4,5]thieno[2,3-e]indazol-6-amine], the IC50 in assay [1] is no more than 5 µM; in assay [2] it was no more than 1 µM.

Regarding `O=C(O)Cn1cc2c(n1)CCc1c-2sc2ncnc(Nc3ccc(OCc4cccc(F)c4)c(Cl)c3)c12` [Example 175, [6-({3-chloro-4-[(3-fluorobenzyl)oxy]phenyl}amino)-4,5-dihydro-2H-pyrimido[5′,4′:4,5]thieno[2,3-e]indazol-2-yl]acetic acid], the IC50 in assay [1] was no more than 50 µM; in assay [2], no more than 5 µM.

On to `CN1CCN(CCCn2ncc3c2CCc2c-3sc3ncnc(Nc4ccc(OCc5cccc(F)c5)c(Cl)c4)c23)CC1` [Example 269, N-{3-chloro-4-[(3-fluorobenzyl)oxy]phenyl}-3-[3-(4-methylpiperazin-1-yl)propyl]-4,5-dihydro-3H-pyrimido[5′,4′:4,5]thieno[2,3-e]indazol-6-amine], for which the figures for the IC50 in assay [1] and in assay [2] were no more than 5 µM and no more than 1 µM, respectively.

For `OCCNC[C@@H](O)Cn1cc2c(n1)CCc1c-2sc2ncnc(Nc3ccc(OCc4cccc(F)c4)c(Cl)c3)c12` [Example 151, (2R)-1-[6-({3-chloro-4-[(3-fluorobenzyl)oxy]phenyl}amino)-4,5-dihydro-2H-pyrimido[5′,4′:4,5]thieno[2,3-e]indazol-2-yl]-3-[(2-hydroxyethyl)amino]propan-2-ol trifluoroacetate (salt)], the IC50 was no more than 50 µM in assay [1] and no more than 1 µM in assay [2].

With `O[C@H](CNCCN1CCOCC1)Cn1ncc2c1CCc1c-2sc2ncnc(Nc3ccc(OCc4cccc(F)c4)c(Cl)c3)c12` [Example 165, (2R)-1-[6-({3-chloro-4-[(3-fluorobenzyl)oxy]phenyl}amino)-4,5-dihydro-3H-pyrimido[5′,4′:4,5]thieno[2,3-e]indazol-3-yl]-3-[(2-morpholin-4-ylethyl)amino]propan-2-ol], the values for the IC50 in assay [1] and in assay [2] were no more than 50 µM and no more than 1 µM, respectively.

On to `CN1CCN(CCn2cc3c(n2)CCc2c-3sc3ncnc(Nc4ccc(Oc5cccnc5)cc4)c23)CC1` [Example 340, 2-[2-(4-methylpiperazin-1-yl)ethyl]-N-[4-(pyridin-3-yloxy)phenyl]-4,5-dihydro-2H-pyrimido[5′,4′:4,5]thieno[2,3-e]indazol-6-amine], for which the IC50 is no more than 50 µM in assay [1] and no more than 5 µM in assay [2].

In the case of `Clc1cc(Nc2ncnc3sc4c(c23)CCc2nn(CCBr)cc2-4)ccc1OCc1ccccn1` [Example 101, 2-(2-bromoethyl)-N-[3-chloro-4-(pyridin-2-ylmethoxy)phenyl]-4,5-dihydro-2H-pyrimido[5′,4′:4,5]thieno[2,3-e]indazol-6-amine], the IC50 in assay [1] is no more than 50 µM; in assay [2], no more than 1 µM.

With `Cc1cccc(COc2ccc(Nc3ncnc4sc5c(c34)CCc3nn(CCN4CCN(C)CC4)cc3-5)cc2Cl)c1` [Example 330, N-{3-chloro-4-[(3-methylbenzyl)oxy]phenyl}-2-[2-(4 methylpiperazin-1-yl)ethyl]-4,5-dihydro-2H-pyrimido[5′,4′:4,5]thieno[2,3-e]indazol-6-amine], the IC50 in assay [1] and in assay [2] was no more than 5 µM throughout.

Consider `OCCNCCn1cc2c(n1)CCc1c-2sc2ncnc(Nc3ccc4c(cnn4Cc4cccc(F)c4)c3)c12` [Example 281, 2-{[2-(6-{[1-(3-fluorobenzyl)-1H-indazol-5-yl]amino}-4,5-dihydro-2H-pyrimido[5′,4′:4,5]thieno[2,3-e]indazol-2-yl)ethyl]amino}ethanol], for which the IC50 in assay [1] is no more than 5 µM; in assay [2] it was no more than 1 µM.

Regarding `Clc1cc(Nc2ncnc3sc4c(c23)CCc2c-4cnn2CCBr)ccc1OCc1ccccn1` [Example 110, 3-(2-bromoethyl)-N-[3-chloro-4-(pyridin-2-ylmethoxy)phenyl]-4,5-dihydro-3H-pyrimido[5′,4′:4,5]thieno[2,3-e]indazol-6-amine], the figures for the IC50 in assay [1] and in assay [2] were no more than 5 µM and no more than 1 µM, respectively.

On to `OCCNCCn1cc2c(n1)CCc1c-2sc2ncnc(Nc3ccc(OCc4cccc(F)c4)c(Cl)c3)c12` [Example 61, 2-({2-[6-({3-chloro-4-[(3-fluorobenzyl)oxy]phenyl}amino)-4,5-dihydro-2H-pyrimido[5′,4′:4,5]thieno[2,3-e]indazol-2-yl]ethyl}amino)ethanol], for which the IC50 was no more than 5 µM in assay [1] and no more than 1 µM in assay [2].

Turning to `Clc1cc(Nc2ncnc3sc4c(c23)CCc2nn(CCN3CCOCC3)cc2-4)ccc1OCc1ccccn1` [Example 106, N-[3-chloro-4-(pyridin-2-ylmethoxy)phenyl]-2-(2-morpholin-4-ylethyl)-4,5-dihydro-2H-pyrimido[5′,4′:4,5]thieno[2,3-e]indazol-6-amine], the IC50 in assay [1] was no more than 50 µM; in assay [2], no more than 1 µM.

On to `CS(=O)(=O)CCNCCn1ncc2c1CCc1c-2sc2ncnc(Nc3ccc(OCc4ccccn4)c(Cl)c3)c12` [Example 114, N-[3-chloro-4-(pyridin-2-ylmethoxy)phenyl]-3-(2-{[2-(methylsulfonyl)ethyl]amino}ethyl)-4,5-dihydro-3H-pyrimido[5′,4′:4,5]thieno[2,3-e]indazol-6-amine], for which the IC50 in assay [1] is no more than 5 µM; in assay [2] it was no more than 1 µM.

In the case of `CN1CCC(CCn2cc3c(n2)CCc2c-3sc3ncnc(Nc4ccc(OCc5cccc(F)c5)c(Cl)c4)c23)CC1` [Example 255, N-{3-chloro-4-[(3-fluorobenzyl)oxy]phenyl}-2-[2-(1-methylpiperidin-4-yl)ethyl]-4,5-dihydro-2H-pyrimido[5′,4′:4,5]thieno[2,3-e]indazol-6-amine], the results for the IC50 in assay [1] and in assay [2] were no more than 5 µM and no more than 1 µM, respectively.

For the compound `O=C(Cn1ncc2c1CCc1c-2sc2ncnc(Nc3ccc(OCc4cccc(F)c4)c(Cl)c3)c12)Nc1ccccn1` [Example 195, 2-[6-({3-chloro-4-[(3-fluorobenzyl)oxy]phenyl}amino)-4,5-dihydro-3H-pyrimido[5′,4′:4,5]thieno[2,3-e]indazol-3-yl]-N-pyridin-2-ylacetamide], the IC50 in assay [1] was no more than 50 µM; in assay [2], no more than 1 µM.
